Experimental findings from ChEMBL document CHEMBL1144888, “Synthesis, structure-activity relationship, and evaluation of SR141716 analogues: development of central cannabinoid receptor ligands with lower lipophilicity” (J Med Chem, 2003) are described below.

Each structure is given as a SMILES string.

Chain of Cannabinoid receptor 1 (P20272 whole entry): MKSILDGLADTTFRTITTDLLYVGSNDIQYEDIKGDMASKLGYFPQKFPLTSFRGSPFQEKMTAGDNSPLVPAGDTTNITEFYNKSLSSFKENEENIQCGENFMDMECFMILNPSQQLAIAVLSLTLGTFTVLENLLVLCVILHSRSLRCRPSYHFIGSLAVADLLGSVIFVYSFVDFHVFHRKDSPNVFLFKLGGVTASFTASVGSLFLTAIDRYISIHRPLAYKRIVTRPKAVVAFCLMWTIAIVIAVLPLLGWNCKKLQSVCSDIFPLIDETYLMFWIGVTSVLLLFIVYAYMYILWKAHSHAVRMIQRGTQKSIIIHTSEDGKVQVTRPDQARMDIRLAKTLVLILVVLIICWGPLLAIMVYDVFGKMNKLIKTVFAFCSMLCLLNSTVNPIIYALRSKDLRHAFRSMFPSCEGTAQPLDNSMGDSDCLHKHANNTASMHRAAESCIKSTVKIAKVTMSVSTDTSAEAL

Tested on in the first series: not listed separately
Briefly: Partition coefficient (logD7.4). The conditions noted are these: octanol/water, pH 7.4.
A word on the logD: it is lipophilicity at a set pH, counting ionised and neutral species. A low value points to lower lipophilicity. In turn, `O=C(NN1CCCCC1)c1cc(-c2ccc(Cl)cc2)n(-c2ccc(Cl)cc2Cl)n1` came in with a logD of 5.14.

The next series has as its target Cannabinoid receptor 1 (Rattus norvegicus, UniProt P20272).
Conditions: not given
For orientation: Ki means the dissociation constant of the complex between target and ligand, obtained from inhibition or displacement. For the compound `COc1ccc(-c2c(Br)c(C(=O)NN3CCCCC3)nn2-c2ccccc2Cl)cc1`, the affinity corresponds to a Ki of 6.2 nM.
In the case of `Cc1c(C(=O)NN2CCCCC2)nn(-c2ccc(Cl)cc2Cl)c1-c1ccc(O)cc1`, the affinity corresponds to a Ki of 104 nM.
In the case of `COc1ccc(-c2c(F)c(C(=O)NN3CCCCC3)nn2-c2ccccc2Cl)cc1`, the inhibition constant (Ki) came out at 18.2 nM.
In the case of `O=C(NN1CCCCC1)c1cc(-c2ccc(Cl)cc2)n(-c2ccc(Cl)cc2Cl)n1`, the Ki turned out to be 9 nM.
`COc1ccc(-c2c(Br)c(C(=O)NN3CCCCCC3)nn2-c2ccc(Cl)cc2Cl)cc1` yielded a Ki of 5.2 nM.
With `Cc1c(C(=O)NN2CCCCC2)nn(-c2ccc(Cl)cc2Cl)c1-c1ccc(OC2CCCN2C(=O)OC(C)(C)C)cc1` (centres undefined), the affinity corresponds to a Ki of 390 nM.
On the same count and under the same terms, for `COc1ccc(-c2c(C)c(C(=O)NN3CCCCC3)nn2-c2ccccc2OC)cc1` the value was 440 nM; for `Cc1c(C(=O)NN2CCCCC2)nn(-c2ccc(Cl)cc2Cl)c1-c1ccc2c(c1)OCO2`, 7.1 nM.
Same read-out and setting: as for `O=C(NN1CCCCC1)c1nn(-c2ccc(Cl)cc2Cl)c(-c2ccc(Cl)cc2)c1Br`, the figure is 1.4 nM.
The compound `COc1ccc(-c2c(C)c(C(=O)NN3CCCCC3)nn2-c2ccccc2F)cc1` showed an inhibition constant (Ki) of 37.8 nM.
For `COc1ccc(-c2c(C)c(C(=O)NN3CCCCC3)nn2-c2ccccc2Cl)cc1`, affinity was put at a Ki of 8 nM.
On to `COc1ccc(-c2c(C)c(C(=O)NN3CCCCCC3)nn2-c2ccc(Cl)cc2Cl)cc1`, for which the Ki is 7 nM.
Regarding `Cc1c(C(=O)NN2CCOCC2)nn(-c2ccc(Cl)cc2Cl)c1-c1ccc(I)cc1`, the Ki is 4.5 nM.
